According to ChEMBL document CHEMBL1138376, “Identification of a series of highly potent activators of the Nurr1 signaling pathway” (Bioorg Med Chem Lett, 2007):

Key:
[1] = target: T1, Nuclear receptor subfamily 4 group A member 2 (Homo sapiens, UniProt P43354); assay: Activation of Nurr1 expressed in MN9D cells by luciferase reporter gene assay; assay type: cell-based
[2] = target: T1, Nuclear receptor subfamily 4 group A member 2; assay: Activation of Nurr1 expressed in MN9D cells by luciferase reporter gene assay relative to control; assay type: cell-based; set-up: concentration or dose not given beside the values
[3] = Bioavailability in mouse at 10 umol/kg, po; assay type: ADME, organism-based; settings: in vivo

T1 sequence (P43354 whole entry): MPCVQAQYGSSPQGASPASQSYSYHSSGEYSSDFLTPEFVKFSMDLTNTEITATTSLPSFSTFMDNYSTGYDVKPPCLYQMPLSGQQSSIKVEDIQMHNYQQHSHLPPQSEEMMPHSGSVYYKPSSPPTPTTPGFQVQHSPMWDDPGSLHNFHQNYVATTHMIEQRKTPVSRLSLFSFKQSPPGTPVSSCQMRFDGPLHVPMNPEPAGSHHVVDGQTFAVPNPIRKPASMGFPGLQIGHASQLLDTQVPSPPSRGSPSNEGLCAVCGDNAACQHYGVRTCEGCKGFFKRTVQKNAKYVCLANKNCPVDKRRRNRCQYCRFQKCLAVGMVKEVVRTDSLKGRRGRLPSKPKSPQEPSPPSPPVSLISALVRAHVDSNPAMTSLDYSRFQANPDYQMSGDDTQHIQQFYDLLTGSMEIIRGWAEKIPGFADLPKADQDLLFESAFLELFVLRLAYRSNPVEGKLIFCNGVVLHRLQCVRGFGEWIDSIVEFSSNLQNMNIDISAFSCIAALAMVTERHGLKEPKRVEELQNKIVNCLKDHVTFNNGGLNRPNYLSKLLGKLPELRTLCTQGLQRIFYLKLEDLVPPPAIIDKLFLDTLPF

| Structure (SMILES) | EC50 [1] | Activity [2] | bioavailability [3] |
| --- | --- | --- | --- |
| O=c1[nH]c(-c2ccccc2)cc2onc(-c3ccccc3)c12 [ISOXAZOLOPYRIDINONE] | 77.5 nM | 207% | – |
| Cn1c(-c2ccncc2)cc2onc(-c3ccccc3)c2c1=O | 130 nM | 198% | – |
| COc1ccc(-c2cc3onc(-c4ccccc4)c3c(=O)n2C)c(OC)c1 | 59.2 nM | 202% | – |
| Cc1cc2onc(-c3ccccc3)c2c(=O)n1C | > 2000 nM | – | – |
| CN1CCN(Cc2ccc(-c3cc4onc(-c5ccccc5)c4c(=O)n3C)cc2)CC1 | 31.9 nM | 163% | – |
| Cn1c(-c2ccc3c(c2)OCO3)cc2onc(-c3ccccc3)c2c1=O | 0.8 nM | 202% | – |
| COc1ccc(-c2cc3onc(-c4ccccc4)c3c(=O)n2C)cc1 | 4.1 nM | 185% | – |
| Cn1c(-c2ccc(Oc3ccccc3)cc2)cc2onc(-c3ccccc3)c2c1=O | > 2000 nM | – | – |
| CN(C)Cc1ccc(-c2cc3onc(-c4ccccc4)c3c(=O)n2C)cc1 | 26 nM | 171% | – |
| Cn1c(-c2ccc(COCCO)cc2)cc2onc(-c3ccccc3)c2c1=O | 3.5 nM | 226% | – |
| COCCOCc1ccc(-c2cc3onc(-c4ccccc4)c3c(=O)n2C)cc1 | 3.9 nM | 208% | 95% |
| CC(C)OCCOCc1ccc(-c2cc3onc(-c4ccccc4)c3c(=O)n2C)cc1 | 113 nM | 173% | – |
